Test results as given in the supplement of paper PMC6045584.
± gives the standard deviation of the averaged measurements.

Experiments:
CELECOXIB [1] = compound: T1, Cc1ccc(-c2cc(C(F)(F)F)nn2-c2ccc(S(N)(=O)=O)cc2)cc1 [CELECOXIB]; test: area under dose-response curve of surviving fraction (unscaled, Aref=0) (surviving fraction x log10(nM)); higher = more resistant; conditions: exposure time: 5 days; dose range 0.5-1000 nM
How it was run: (§1)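 Surviving fractions were fitted by 3-parameter logistic regression in the drc R package to give dose-response survival curves. They came from tumour cell lines treated for five days with eight inhibitor concentrations from 0.5 to 1000 nM and read by CellTiter-Glo luminescence against DMSO-only wells. The area under the curve is the unscaled activity area. It was calculated over log10 dose with Aref = 0.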

GEFITINIB [2] = compound: T2, COc1cc2ncnc(Nc3ccc(F)c(Cl)c3)c2cc1OCCCN1CCOCC1 [GEFITINIB]; test: as above; conditions: exposure time: 5 days; dose range 0.5-1000 nM
How it was run: as §1

[3] = compound: CC(=O)NCC(=O)N1[C@@H]2CC[C@H]1c1ccc(Nc3ncc(C(F)(F)F)c(NC4CCC4)n3)cc12; test: as above; conditions: exposure time: 5 days; dose range 0.5-1000 nM
How it was run: as §1

CARBOPLATIN [4] = compound: T3, O=C(O)C1(C(=O)O)CCC1.[NH2-].[NH2-].[Pt+2] [CARBOPLATIN]; test: as above; conditions: exposure time: 5 days; dose range 0.5-1000 nM
How it was run: as §1

PACLITAXEL [5] = compound: T4, CC(=O)O[C@H]1C(=O)[C@@]2(C)[C@H]([C@H](OC(=O)c3ccccc3)[C@]3(O)C[C@H](OC(=O)[C@H](O)[C@@H](NC(=O)c4ccccc4)c4ccccc4)C(C)=C1C3(C)C)[C@]1(OC(C)=O)CO[C@@H]1C[C@@H]2O [PACLITAXEL]; test: as above; conditions: exposure time: 5 days; dose range 0.5-1000 nM
How it was run: as §1

YM155 [6] = compound: T5, COCC[n+]1c2c(n(Cc3cnccn3)c1C)C(=O)c1ccccc1C2=O [YM155]; test: as above; conditions: exposure time: 5 days; dose range 0.5-1000 nM
How it was run: as §1

CAMPTOTHECIN [7] = compound: T6, CC[C@@]1(O)C(=O)OCc2c1cc1n(c2=O)Cc2cc3ccccc3nc2-1 [CAMPTOTHECIN]; test: as above; conditions: exposure time: 5 days; dose range 0.5-1000 nM
How it was run: as §1

OSI-906 [8] = compound: T7, C[C@]1(O)C[C@@H](c2nc(-c3ccc4ccc(-c5ccccc5)nc4c3)c3c(N)nccn32)C1 [OSI-906]; test: as above; conditions: exposure time: 5 days; dose range 0.5-1000 nM
How it was run: as §1

[9] = compound: CC(=O)c1c(C)c2cnc(Nc3ccc(N4CCNCC4)cn3)nc2n(C2CCCC2)c1=O; test: as above; conditions: exposure time: 5 days; dose range 0.5-1000 nM
How it was run: as §1

CELECOXIB [10] = compound: T1, CELECOXIB; test: surviving fraction relative to DMSO-only wells; higher = less growth inhibition; conditions: exposure time: 5 days
How it was run: (§2)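 Tumour cell lines in log phase were plated in 384-well plates at 250–500 cells per well, then, after 24 hours, exposed continuously for five days to inhibitors at 0.5, 1, 5, 10, 50, 100, 500 and 1000 nM. Viability came from CellTiter-Glo luminescence, and surviving fraction is that signal normalised to the median of DMSO-only wells. Plates were read after 10 minutes at room temperature, and each line, screened three times, was kept only when replicate Pearson r was >0.7 and median Z' was >0.3.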

GEFITINIB [11] = compound: T2, GEFITINIB; test: as above; conditions: exposure time: 5 days
How it was run: as §2

[12] = compound: CC(=O)NCC(=O)N1[C@@H]2CC[C@H]1c1ccc(Nc3ncc(C(F)(F)F)c(NC4CCC4)n3)cc12; test: as above; conditions: exposure time: 5 days
How it was run: as §2

CARBOPLATIN [13] = compound: T3, CARBOPLATIN; test: as above; conditions: exposure time: 5 days
How it was run: as §2

PACLITAXEL [14] = compound: T4, PACLITAXEL; test: as above; conditions: exposure time: 5 days
How it was run: as §2

YM155 [15] = compound: T5, YM155; test: as above; conditions: exposure time: 5 days
How it was run: as §2

CAMPTOTHECIN [16] = compound: T6, CAMPTOTHECIN; test: as above; conditions: exposure time: 5 days
How it was run: as §2

OSI-906 [17] = compound: T7, OSI-906; test: as above; conditions: exposure time: 5 days
How it was run: as §2

[18] = compound: CC(=O)c1c(C)c2cnc(Nc3ccc(N4CCNCC4)cn3)nc2n(C2CCCC2)c1=O; test: as above; conditions: exposure time: 5 days
How it was run: as §2

Test System: HS57T LUNG
- area under dose-response curve (CELECOXIB [1]): 3.47
- area under dose-response curve (GEFITINIB [2]): 3.31
- area under dose-response curve [3]: 2.46
- area under dose-response curve (CARBOPLATIN [4]): 3.58
- area under dose-response curve (PACLITAXEL [5]): 0.449
- area under dose-response curve (YM155 [6]): 1.67
- area under dose-response curve (CAMPTOTHECIN [7]): 1.43
- area under dose-response curve (OSI-906 [8]): 2.92
- area under dose-response curve [9]: 3.56

Test System: MDAMB231 BREAST
- surviving fraction (CELECOXIB [10]; 0.5 nM): 0.973 ± 0.02
- surviving fraction (CELECOXIB [10]; 1 nM): 1 ± 0.015
- surviving fraction (CELECOXIB [10]; 5 nM): 0.985 ± 0.018
- surviving fraction (CELECOXIB [10]; 10 nM): 1 ± 0.015
- surviving fraction (CELECOXIB [10]; 50 nM): 1.01 ± 0.02
- surviving fraction (CELECOXIB [10]; 100 nM): 1.04 ± 0.012
- surviving fraction (CELECOXIB [10]; 500 nM): 1.04 ± 0.03
- surviving fraction (CELECOXIB [10]; 1000 nM): 1.02 ± 0.033
- surviving fraction (GEFITINIB [11]; 0.5 nM): 0.989 ± 0.026
- surviving fraction (GEFITINIB [11]; 1 nM): 0.987 ± 0.026
- surviving fraction (GEFITINIB [11]; 5 nM): 1.02 ± 0.02
- surviving fraction (GEFITINIB [11]; 10 nM): 1.03 ± 0.024
- surviving fraction (GEFITINIB [11]; 50 nM): 1.06 ± 0.027
- surviving fraction (GEFITINIB [11]; 100 nM): 1.06 ± 0.037
- surviving fraction (GEFITINIB [11]; 500 nM): 1.06 ± 0.018
- surviving fraction (GEFITINIB [11]; 1000 nM): 1.04 ± 0.037
- surviving fraction ([12]; 0.5 nM): 0.975 ± 0.018
- surviving fraction ([12]; 1 nM): 0.98 ± 0.016
- surviving fraction ([12]; 5 nM): 0.974 ± 0.011
- surviving fraction ([12]; 10 nM): 0.967 ± 0.015
- surviving fraction ([12]; 50 nM): 0.706 ± 0.063
- surviving fraction ([12]; 100 nM): 0.571 ± 0.027
- surviving fraction ([12]; 500 nM): 0.416 ± 0.022
- surviving fraction ([12]; 1000 nM): 0.337 ± 0.018
- surviving fraction (CARBOPLATIN [13]; 0.5 nM): 0.997 ± 0.048
- surviving fraction (CARBOPLATIN [13]; 1 nM): 0.988 ± 0.019
- surviving fraction (CARBOPLATIN [13]; 5 nM): 0.994 ± 0.036
- surviving fraction (CARBOPLATIN [13]; 10 nM): 1 ± 0.027
- surviving fraction (CARBOPLATIN [13]; 50 nM): 1.01 ± 0.019
- surviving fraction (CARBOPLATIN [13]; 100 nM): 1.02 ± 0.038
- surviving fraction (CARBOPLATIN [13]; 500 nM): 1.03 ± 0.026
- surviving fraction (CARBOPLATIN [13]; 1000 nM): 1.02 ± 0.041
- surviving fraction (PACLITAXEL [14]; 0.5 nM): 0.706 ± 0.028
- surviving fraction (PACLITAXEL [14]; 1 nM): 0.328 ± 0.039
- surviving fraction (PACLITAXEL [14]; 5 nM): 0.163 ± 0.0032
- surviving fraction (PACLITAXEL [14]; 10 nM): 0.125 ± 0.0027
- surviving fraction (PACLITAXEL [14]; 50 nM): 0.121 ± 0.0031
- surviving fraction (PACLITAXEL [14]; 100 nM): 0.121 ± 0.0088
- surviving fraction (PACLITAXEL [14]; 500 nM): 0.0907 ± 0.0055
- surviving fraction (PACLITAXEL [14]; 1000 nM): 0.0993 ± 0.0078
- surviving fraction (YM155 [15]; 0.5 nM): 0.91 ± 0.0095
- surviving fraction (YM155 [15]; 1 nM): 0.903 ± 0.024
- surviving fraction (YM155 [15]; 5 nM): 0.112 ± 0.002
- surviving fraction (YM155 [15]; 10 nM): 0.0683 ± 0.0035
- surviving fraction (YM155 [15]; 50 nM): 0.0386 ± 0.0022
- surviving fraction (YM155 [15]; 100 nM): 0.0352 ± 0.002
- surviving fraction (YM155 [15]; 500 nM): 0.0302 ± 0.00043
- surviving fraction (YM155 [15]; 1000 nM): 0.0372 ± 0.0043
- surviving fraction (CAMPTOTHECIN [16]; 0.5 nM): 0.887 ± 0.025
- surviving fraction (CAMPTOTHECIN [16]; 1 nM): 0.902 ± 0.028
- surviving fraction (CAMPTOTHECIN [16]; 5 nM): 0.803 ± 0.04
- surviving fraction (CAMPTOTHECIN [16]; 10 nM): 0.603 ± 0.019
- surviving fraction (CAMPTOTHECIN [16]; 50 nM): 0.276 ± 0.0089
- surviving fraction (CAMPTOTHECIN [16]; 100 nM): 0.211 ± 0.007
- surviving fraction (CAMPTOTHECIN [16]; 500 nM): 0.0976 ± 0.004
- surviving fraction (CAMPTOTHECIN [16]; 1000 nM): 0.0968 ± 0.0048
- surviving fraction (OSI-906 [17]; 0.5 nM): 0.917 ± 0.034
- surviving fraction (OSI-906 [17]; 1 nM): 0.9167 ± 0.0045
- surviving fraction (OSI-906 [17]; 5 nM): 0.937 ± 0.021
- surviving fraction (OSI-906 [17]; 10 nM): 0.918 ± 0.03
- surviving fraction (OSI-906 [17]; 50 nM): 0.957 ± 0.031
- surviving fraction (OSI-906 [17]; 100 nM): 0.947 ± 0.013
- surviving fraction (OSI-906 [17]; 500 nM): 0.922 ± 0.014
- surviving fraction (OSI-906 [17]; 1000 nM): 0.908 ± 0.032
- surviving fraction ([18]; 0.5 nM): 0.994 ± 0.01
- surviving fraction ([18]; 1 nM): 1.03 ± 0.032
- surviving fraction ([18]; 5 nM): 1.03 ± 0.014
- surviving fraction ([18]; 10 nM): 1.01 ± 0.031
- surviving fraction ([18]; 50 nM): 1.045 ± 0.0069
- surviving fraction ([18]; 100 nM): 1.02 ± 0.021
- surviving fraction ([18]; 500 nM): 0.905 ± 0.013
- surviving fraction ([18]; 1000 nM): 0.888 ± 0.023
- area under dose-response curve (CELECOXIB [1]): 3.3
- area under dose-response curve (GEFITINIB [2]): 3.4
- area under dose-response curve [3]: 2.51
- area under dose-response curve (CARBOPLATIN [4]): 3.32
- area under dose-response curve (PACLITAXEL [5]): 0.557
- area under dose-response curve (YM155 [6]): 0.671
- area under dose-response curve (CAMPTOTHECIN [7]): 1.62
- area under dose-response curve (OSI-906 [8]): 3.07
- area under dose-response curve [9]: 3.24
